Measurements as given in patent publication US12448395B2 (BRISTOL-MYERS SQUIBB COMPANY, priority 2019, dated 2025).
Counter-ions that a name gives are not always drawn.

Experiments:
Format in all cases: cell-based
human TLR7 = molecular target: T1, human TLR7 (Homo sapiens, UniProt Q9NYK1); test: TLR7 inhibition reporter assay (HEK-Blue SEAP, gardiquimod stimulation); details: HEK-Blue cells overexpressing human TLR7, gardiquimod 7.5 μM
T1 sequence (Q9NYK1 27-1049): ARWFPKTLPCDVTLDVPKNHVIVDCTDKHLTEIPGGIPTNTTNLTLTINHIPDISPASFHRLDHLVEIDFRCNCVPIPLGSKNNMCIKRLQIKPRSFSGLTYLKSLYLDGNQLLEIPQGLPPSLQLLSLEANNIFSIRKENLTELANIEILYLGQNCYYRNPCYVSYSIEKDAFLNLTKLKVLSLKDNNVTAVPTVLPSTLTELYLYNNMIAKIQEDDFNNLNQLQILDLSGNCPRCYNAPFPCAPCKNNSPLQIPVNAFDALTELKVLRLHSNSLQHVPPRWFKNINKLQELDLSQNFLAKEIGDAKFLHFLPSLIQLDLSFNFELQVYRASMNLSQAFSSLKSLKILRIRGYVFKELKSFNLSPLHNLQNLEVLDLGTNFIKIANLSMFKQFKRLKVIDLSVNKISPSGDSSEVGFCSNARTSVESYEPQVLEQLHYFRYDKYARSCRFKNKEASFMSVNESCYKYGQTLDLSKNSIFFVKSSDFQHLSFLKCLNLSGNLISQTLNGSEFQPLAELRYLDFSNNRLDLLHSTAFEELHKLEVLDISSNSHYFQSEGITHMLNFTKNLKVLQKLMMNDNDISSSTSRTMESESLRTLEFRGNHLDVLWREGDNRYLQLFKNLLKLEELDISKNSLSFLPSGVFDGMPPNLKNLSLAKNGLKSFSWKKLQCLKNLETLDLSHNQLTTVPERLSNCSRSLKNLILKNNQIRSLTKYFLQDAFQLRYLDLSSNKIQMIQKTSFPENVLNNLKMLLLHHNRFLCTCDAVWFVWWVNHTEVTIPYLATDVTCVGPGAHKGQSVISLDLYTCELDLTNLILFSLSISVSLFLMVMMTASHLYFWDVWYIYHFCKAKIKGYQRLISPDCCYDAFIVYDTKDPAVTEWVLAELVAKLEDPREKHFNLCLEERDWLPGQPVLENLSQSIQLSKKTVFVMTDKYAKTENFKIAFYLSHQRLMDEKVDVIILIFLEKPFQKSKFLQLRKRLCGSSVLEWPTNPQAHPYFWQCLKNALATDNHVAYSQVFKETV
Procedure: (§1) TLR7/8/9 Inhibition Reporter Assays
(§2) HEK-Blue™-cells (Invivogen) overexpressing human TLR7, TLR8 or TLR9 receptors were used for screening inhibitors of these receptors using an inducible SEAP (secreted embryonic alkaline phosphatase) reporter gene under the control of the IFN-β minimal promoter fused to five NF-κB and AP-1-binding sites. Briefly, cells are seeded into Greiner 384 well plates (15000 cells per well for TLR7, 20,000 for TLR8 and 25,000 for TLR9) and then treated with test compounds in DMSO to yield a final dose response concentration range of 0.05 nM-50 μM. After a 30 minute compound pre-treatment at room temperature, the cells are then stimulated with a TLR7 ligand (gardiquimod at a final concentration of 7.5 μM), TLR8 ligand (R848 at a final concentration of 15.9 μM) or TLR9 ligand (ODN2006 at a final concentration of 5 nM) to activate NF-κB and AP-1 which induce the production of SEAP. After a 22 hour incubation at 37° C., 5% CO2, SEAP levels are determined with the addition of HEK-Blue™ Detection reagent (Invivogen), a cell culture medium that allows for detection of SEAP, according to manufacturer's specifications. The percent inhibition is determined as the % reduction in the HEK-Blue signal present in wells treated with agonist plus DMSO alone compared to wells treated with a known inhibitor.

human TLR8 = molecular target: T2, human TLR8 (Homo sapiens, UniProt Q9NR97); test: TLR8 inhibition reporter assay (HEK-Blue SEAP, R848 stimulation); details: HEK-Blue cells overexpressing human TLR8, R848 15.9 μM
T2 sequence (Q9NR97 27-1041): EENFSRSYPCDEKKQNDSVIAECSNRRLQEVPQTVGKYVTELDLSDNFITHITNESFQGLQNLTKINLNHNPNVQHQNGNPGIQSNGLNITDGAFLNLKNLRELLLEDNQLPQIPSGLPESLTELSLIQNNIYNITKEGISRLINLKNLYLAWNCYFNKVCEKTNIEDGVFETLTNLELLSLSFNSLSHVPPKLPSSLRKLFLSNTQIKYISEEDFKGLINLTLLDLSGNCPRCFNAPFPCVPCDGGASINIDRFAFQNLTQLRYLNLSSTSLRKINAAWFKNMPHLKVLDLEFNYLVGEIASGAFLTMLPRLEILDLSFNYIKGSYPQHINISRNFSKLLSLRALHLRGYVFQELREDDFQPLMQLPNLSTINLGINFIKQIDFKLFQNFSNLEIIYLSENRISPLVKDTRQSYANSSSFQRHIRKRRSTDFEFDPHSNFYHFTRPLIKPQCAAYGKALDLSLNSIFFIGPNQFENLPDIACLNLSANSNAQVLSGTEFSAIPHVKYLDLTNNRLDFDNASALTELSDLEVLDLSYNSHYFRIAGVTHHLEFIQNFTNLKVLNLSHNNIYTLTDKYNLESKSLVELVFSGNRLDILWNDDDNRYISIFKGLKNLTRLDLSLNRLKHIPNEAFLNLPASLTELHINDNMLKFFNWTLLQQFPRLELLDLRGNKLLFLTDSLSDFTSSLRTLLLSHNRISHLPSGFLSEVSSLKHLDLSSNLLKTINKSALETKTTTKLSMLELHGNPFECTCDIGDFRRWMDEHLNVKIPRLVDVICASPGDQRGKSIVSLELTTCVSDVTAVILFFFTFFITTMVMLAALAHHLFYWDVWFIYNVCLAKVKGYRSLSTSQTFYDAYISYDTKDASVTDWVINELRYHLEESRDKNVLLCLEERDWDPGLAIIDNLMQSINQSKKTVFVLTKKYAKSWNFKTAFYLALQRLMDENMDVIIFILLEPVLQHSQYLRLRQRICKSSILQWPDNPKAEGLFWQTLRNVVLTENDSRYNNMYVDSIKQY
Procedure: as §1, §2

human TLR9 = molecular target: T3, human TLR9 (Homo sapiens, UniProt Q9NR96); test: TLR9 inhibition reporter assay (HEK-Blue SEAP, ODN2006 stimulation); details: HEK-Blue cells overexpressing human TLR9, ODN2006 5 nM
T3 sequence (Q9NR96 26-1032): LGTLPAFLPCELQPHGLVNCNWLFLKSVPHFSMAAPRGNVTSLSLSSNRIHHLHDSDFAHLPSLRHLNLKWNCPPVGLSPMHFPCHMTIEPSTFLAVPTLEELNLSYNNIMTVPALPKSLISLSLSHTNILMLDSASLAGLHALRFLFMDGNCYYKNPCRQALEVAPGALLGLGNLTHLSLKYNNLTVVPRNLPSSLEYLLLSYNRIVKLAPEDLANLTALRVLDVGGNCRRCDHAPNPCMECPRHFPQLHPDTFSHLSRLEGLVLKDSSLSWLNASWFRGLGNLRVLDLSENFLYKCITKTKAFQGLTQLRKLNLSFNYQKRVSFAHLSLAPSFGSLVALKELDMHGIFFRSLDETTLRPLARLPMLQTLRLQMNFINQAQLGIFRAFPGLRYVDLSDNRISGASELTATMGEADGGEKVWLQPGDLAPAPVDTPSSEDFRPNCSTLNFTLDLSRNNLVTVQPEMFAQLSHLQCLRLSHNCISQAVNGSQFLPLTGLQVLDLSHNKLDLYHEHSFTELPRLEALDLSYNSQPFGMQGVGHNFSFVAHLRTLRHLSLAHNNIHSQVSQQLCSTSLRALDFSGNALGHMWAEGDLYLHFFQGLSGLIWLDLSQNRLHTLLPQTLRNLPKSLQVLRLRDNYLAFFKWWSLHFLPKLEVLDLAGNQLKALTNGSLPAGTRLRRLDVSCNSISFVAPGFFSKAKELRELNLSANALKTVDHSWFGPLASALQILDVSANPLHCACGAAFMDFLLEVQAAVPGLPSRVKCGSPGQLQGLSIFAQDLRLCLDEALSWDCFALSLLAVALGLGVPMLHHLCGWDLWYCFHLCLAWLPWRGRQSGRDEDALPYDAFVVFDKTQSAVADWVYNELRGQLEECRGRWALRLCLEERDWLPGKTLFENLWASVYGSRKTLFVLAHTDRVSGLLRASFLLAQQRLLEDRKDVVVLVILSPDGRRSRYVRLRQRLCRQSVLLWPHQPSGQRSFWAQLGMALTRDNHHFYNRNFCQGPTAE
Summary of the method: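 Agonists used: gardiquimod 7.5 μM (TLR7), R848 15.9 μM (TLR8), ODN2006 5 nM (TLR9), added after 30 min room-temperature compound pre-treatment (0.05 nM–50 μM) of receptor-overexpressing HEK-Blue cells. SEAP reporter (NF-κB/AP-1 driven) read after 22 h at 37 °C; inhibition scaled between agonist+DMSO and reference-inhibitor wells.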

Row | IC50 (human TLR7) | IC50 (human TLR8) | IC50 (human TLR9) | Compound
1 | > 3130 nM | > 3130 nM |  | Cc1cc(-c2[nH]c3sc(N4CCN(C5CCC5)C[C@H]4C)nc3c2C(C)C)cn2ncnc12 [Example 362, (R)-2-(4-cyclobutyl-2-methylpiperazin-1-yl)-6-isopropyl-5-(8-methyl-[1,2,4]triazolo[1,5-a]pyridin-6-yl)-4H-pyrrolo[3,2-d]thiazole]
2 | 2.27 nM | 0.64 nM | 12600 nM | Cc1c(-c2[nH]c3sc(C4CCC(NCC(=O)N5CCOCC5)CC4)nc3c2C(C)C)cn2ncnc2c1C (single isomer, unassigned) [Example 206, 2-((4-(5-(7,8-dimethyl-[1,2,4]triazolo[1,5-a]pyridin-6-yl)-6-isopropyl-4H-pyrrolo[3,2-d]thiazol-2-yl)cyclohexyl)amino)-1-morpholinoethan-1-one]
3 | 0.18 nM | 0.09 nM | 15800 nM | Cc1c(-c2[nH]c3sc(N4CCNC[C@H]4C)nc3c2C(C)C)cn2ncnc2c1C [Example 308, (R)-5-(7,8-dimethyl-[1,2,4]triazolo[1,5-a]pyridin-6-yl)-6-isopropyl-2-(2-methylpiperazin-1-yl)-4H-pyrrolo[3,2-d]thiazole, HCl]
4 | > 3130 nM | > 3130 nM |  | COc1cc(-c2c(C(C)C)c3nc(C4CCN(CC(F)(F)F)CC4)sc3n2CC(F)(F)F)cn2ncnc12 [Example 9, 6-isopropyl-5-(8-methoxy-[1,2,4]triazolo[1,5-a]pyridin-6-yl)-4-(2,2,2-trifluoroethyl)-2-(1-(2,2,2-trifluoroethyl)piperidin-4-yl)-4H-pyrrolo[3,2-d]thiazole]
5 | 2.92 nM | 0.31 nM | 20700 nM | Cc1c(-c2[nH]c3sc(C4CCC(NCC(=O)N5CCOCC5)CC4)nc3c2C(C)C)cn2ncnc2c1C (single isomer, unassigned) [Example 207, 2-((4-(5-(7,8-dimethyl-[1,2,4]triazolo[1,5-a]pyridin-6-yl)-6-isopropyl-4H-pyrrolo[3,2-d]thiazol-2-yl)cyclohexyl)amino)-1-morpholinoethan-1-one]
